Among the data in PubChem BioAssay AID588616 (The Scripps Research Institute Molecular Screening Center, 2011) are fold change and inhibition values, retold here.

Test [1] deals with DLD-1 cells, phospho-p38 western blot, 24 h. In words: phospho-p38 protein level change, either direction, late-stage follow-up, counter-screen for KLF5 inhibitor project, DLD1 cells, chemiluminescent western blot, powder samples (AID 588616). The note with it: measured here: phospho-p38 band fold change vs DMSO; at 10 µM; stronger effect = lower value.
The target in test [2] is Mitogen-activated protein kinase 14 (Homo sapiens) (UniProt Q16539). The test is described as above. The note with it: DLD-1 cells, phospho-p38 western blot, 24 h; at 10 µM; stronger effect = higher value. (In general: In western blotting, separated proteins are transferred to a membrane and probed.)
Sequence of Mitogen-activated protein kinase 14 (Homo sapiens) (Q16539 whole entry, looked up): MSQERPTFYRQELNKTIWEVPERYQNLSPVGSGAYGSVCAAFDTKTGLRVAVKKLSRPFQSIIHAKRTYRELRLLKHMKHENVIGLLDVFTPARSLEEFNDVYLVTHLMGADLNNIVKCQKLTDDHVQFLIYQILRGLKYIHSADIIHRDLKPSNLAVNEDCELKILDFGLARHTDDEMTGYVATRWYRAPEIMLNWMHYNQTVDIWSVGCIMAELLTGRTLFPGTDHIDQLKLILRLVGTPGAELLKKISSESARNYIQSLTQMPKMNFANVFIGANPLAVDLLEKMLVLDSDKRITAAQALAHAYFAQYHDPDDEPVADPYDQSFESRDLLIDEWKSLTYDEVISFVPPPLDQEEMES

Molecule `CN(C(=O)CNC(=O)/C=C/c1cccc(Cl)c1)C1CCS(=O)(=O)C1` (stereo unspecified) showed a fold change in test [1] of 2.14. Moreover, the inhibition in test [2] is -114%.
In the same order, the values of `CN(C(=O)COC(=O)/C=C/c1cccc([N+](=O)[O-])c1)C1CCS(=O)(=O)C1` (stereo unspecified) are 2.97 and -197%.
In the same order, the values of `CN(C(=O)CNC(=O)/C=C/c1cccc(Cl)c1)C1CCS(=O)(=O)CC1` are 2.44 and -144%.

The inhibition is the drop in the measured response relative to a control, in per cent.
